{
  "source": "patent US11938125B2",
  "about": "“Use of Hsp70 as a regulator of enzymatic activity” (Zevra Denmark A/S, priority 2008, dated 2024)",
  "molecules": {"B1": {"name": "rASM: recombinant acid sphingomyelinase (protein, UniProt P17405 47-631, looked up)", "Sphingomyelin …": "LALSDSRVLWAPAEAHPLSPQGHPARLHRIVPRLRDVFGWGNLTCPICKGLFTAINLGLKKEPNVARVGSVAIKLCNLLKIAPPAVCQSIVHLFEDDMVEVWRRSVLSPSEACGLLLGSTCGHWDIFSSWNISLPTVPKPPPKPPSPPAPGAPVSRILFLTDLHWDHDYLEGTDPDCADPLCCRRGSGLPPASRPGAGYWGEYSKCDLPLRTLESLLSGLGPAGPFDMVYWTGDIPAHDVWHQTRQDQLRALTTVTALVRKFLGPVPVYPAVGNHESTPVNSFPPPFIEGNHSSRWLYEAMAKAWEPWLPAEALRTLRIGGFYALSPYPGLRLISLNMNFCSRENFWLLINSTDPAGQLQWLVGELQAAEDRGDKVHIIGHIPPGHCLKSWSWNYYRIVARYENTLAAQFFGHTHVDEFEVFYDEETLSRPLAVAFLAPSATTYIGLNPGYRVYQIDGNYSGSSHVVLDHETYILNLTQANIPGAIPHWQLLYRARETYGLPNTLPTAWHNLVYRMRGDMQLFQTFWFLYHKGHPPSEPCGTPCRLATLCAQLSARADSPALCRHLMPDGSLPEAQSLWPRPLFC"}},
  "key": {"WT and Hsp70 iMEFs": {"system": "WT and Hsp70 iMEFs", "assay": "Viability of MEFs (MTT reduction)", "format": "cell-based", "details": "3 h", "method": "The viability of cells was analyzed by the 3-(4,5-dimethylthiazole-2-yl)-2,5-diphenyltetrazolium bromide (MTT) reduction assay as described previously^67.\nAssays for cell viability. Cell density was assessed by the 3-(4,5-dimethylthiazole-2-y)-2,5-[…] (MTT, SIGMA-Aldrich) reduction assay essentially as described in the art. Apoptosis-like cell death was assessed by staining the cells with 0.05 μg/ml Hoechst 33342 (Molecular Probes) and counting cells with condensed nuclei in an inverted Olympus IX-70 fluorescent Microscope (Filter U-MWU 330-385 nm). For each experiment a minimum of eight randomly chosen areas were counted."}, "[1]": {"system": "lysosomes of WT and Hsp70 iMEFs", "assay": "Cytosolic cathepsin activity (zFRase) in MEFs", "format": "cell-based, murine", "details": "3 h", "procedure": "Cells were treated with cisplatin as indicated, cytosolic fractions were obtained by digitonin treatment and cytosolic cysteine cathepsin (zFRase) and caspase-3-like (DEVDase) activities were determined. […] The total and cytoplasmic (digitonin-extracted) cathepsin activities were measured in digitonin-treated samples using zFR-AFC (Enzyme System Products) probe as described in the art."}, "lysosomes of Hsp70-MEFs": {"system": "lysosomes of Hsp70-MEFs", "assay": "Live single-cell imaging of loss of lysosomal integrity (photo-oxidation) in Hsp70-MEFs", "format": "cell-based, murine", "details": "subtoxic desipramine 12.5 and 25 μM, 3 h", "procedure": "Assays for lysosomal integrity. Sub-confluent cells incubated with 2 μg/ml acridine orange for 15 min at 37° C. were washed, irradiated and analyzed in Hanks balanced salt solution complemented with 3% fetal calf serum. Cells for single cell imaging were selected from 8 pre-defined areas of each well in transmitted light-mode after which the same cells were immediately visualized and exposed to blue light from USH102 100 W mercury arc burner (Ushio electric) installed in a U-ULS100HG housing (Olympus) for 20 sec. Fluorescence microscopy was performed on Olympus IX-70 inverted microscope with a […] 1×20 objective with NA=0.40. Loss of lysosomal pH gradient was quantified by counting the loss of intense red staining. A more elaborate method for assaying lysosomal integrity was developed to handle the larger lysosomal compartment of the various fibroblasts used in this study. Cells for single cell imaging were selected from 8 pre-defined areas of each well in transmitted light-mode after which the same cells were immediately and continuously exposed to 489 nm light from a 100 mW diode laser while laser scanning micrographs where captured every 330 ms on a Zeiss LSM LIVE DUO confocal system in two channels defined by bandpass filters for 495-555 nm (green) and LP650 nm (Red) light. The resulting timelapse movies where subsequently analysed by the integrated Zeiss LSM DUO software."}, "BMP": {"system": "BMP", "assay": "BIAcore surface plasmon resonance with immobilized BMP-containing LUVs", "format": "binding", "details": "pH 4.5", "method": "(§1) For preparation of LUVs a lipid mixture consisting of 10 mol % sphingomyelin, 50 mol % phosphatidylcholine, 20 mol % cholesterol and 20 mol % BMP dissolved in organic solvents, was dried under a stream of argon and rehydrated in Tris/HCl buffer (pH 7.4) (Kolzer et al., 2004). The mixture was freeze-thawed nine times in liquid nitrogen and then in an incubator at 37° C. After ultrasound bath for 15 min the mixture was passed 21 times through a polycarbonate membrane with a pore diameter of 100 nm. Surface plasmon resonance measurements were performed using a BIAcore 2000 system at 25° C. LUVs (total lipid concentration 0.1 mM) were immobilized on the surface of a L1 sensor chip (BIAcore) in PBS (loading buffer). The running buffer used was sodium acetate buffer (50 mM, pH 4.5). As a control, acid sphingomyelinase (0.2 μM, 60 μl in running buffer) was injected directly on the liposome surface. Response units between 4100 RU-5250RU were obtained. The protein of interest was injected in running buffer at a flow rate of 20 μl/min at the concentrations indicated. After injection a dissociation phase of 10 min was appended.\nas §1, with “Surface Plasmon Resonance (BIAcore). For” for “For”, “7.4).” for “7.4) (Kolzer et al., 2004).”, “The protein of interest was injected in running buffer at a flow rate of 20 μl/min at the concentrations indicated. After injection a dissociation phase of 10 min was appended.” left out"}, "[2]": {"system": "acid sphingomyelinase (ASM), endogenous mutated and loaded rASM", "assay": "ASM activity of NPDA fibroblasts", "format": "cell-based, human", "details": "300 nM rHsp70 48 h, or 150 nM rASM alone or with 300 nM rHsp70 24 h", "source_text": "WT- and Hsp70-MEFs were generated, immortalized and maintained as described in the art. Human NPDA fibroblasts (83/24) originate from a skin biopsy of a patient with hepatosplenomegaly. Recombinant proteins were generated using the pET-16b vector system and Ni^2+-affinity-purification (Novagen), and labeled with Alexa Fluor 488 according to manufacturers protocol (Molecular Probes). To analyze the lysosomal integrity, we developed a real time imaging method of cells stained with acridine orange, a metachromatic weak base that accumulates in the acidic compartment of the cells staining them red and sensitizing them to photo-oxidation. The photo-oxidation-induced loss of the lysosomal pH-gradient and leakage of acridine orange to the cytosol from individual lysosomes was quantified visually as “loss of red dots” in U2-O—S cells and as a decrease in red and an increase in green fluorescence by Zeiss LSM DUO Software in fibroblasts. The total and cytoplasmic (digitonin-extracted) cathepsin activities were measured in digitonin-treated samples using zFR-AFC (Enzyme System Products) probe as described in the art. The tryptophan fluorescence spectra and liposome 900 light scattering were analyzed in a HEPES buffer (20 mM HEPES, 0.1 mM EDTA, pH as indicated) essentially as described in the art. […]"}, "[3]": {"system": "lysosomes of NPDA patient fibroblasts", "assay": "Lysosomal stability of NPDA fibroblasts (photo-oxidation, live single-cell imaging)", "format": "cell-based, human", "details": "NPDA fibroblasts, 24 h, 300 nM rHsp70, 150 nM rASM or combination", "method": "Assays for lysosomal integrity. Sub-confluent cells incubated with 2 μg/ml acridine orange for 15 min at 37° C. were washed, irradiated and analyzed in Hanks balanced salt solution complemented with 3% fetal calf serum. Cells for single cell imaging were selected from 8 pre-defined areas of each well in transmitted light-mode after which the same cells were immediately visualized and exposed to blue light from USH102 100 W mercury arc burner (Ushio electric) installed in a U-ULS100HG housing (Olympus) for 20 sec. Fluorescence microscopy was performed on Olympus IX-70 inverted microscope with a LCPlanF1×20 objective with NA=0.40. Loss of lysosomal pH gradient was quantified by counting the loss of intense red staining. A more elaborate method for assaying lysosomal integrity was developed to handle the larger lysosomal compartment of the various fibroblasts used in this study. Cells for single cell imaging were selected from 8 pre-defined areas of each well in transmitted light-mode after which the same cells were immediately and continuously exposed to 489 nm light from a 100 mW diode laser while laser scanning micrographs where captured every 330 ms on a Zeiss LSM LIVE DUO confocal system in two channels defined by bandpass filters for 495-555 nm (green) and LP650 nm (Red) light. The resulting timelapse movies where subsequently analysed by the integrated Zeiss LSM DUO software. The total and cytoplasmic (digitonin-extracted) cathepsin activities were measured in digitonin-treated samples using zFR-AFC (Enzyme System Products) probe as described in the art."}, "NPDA fibroblasts": {"system": "NPDA fibroblasts", "assay": "Lysosomal area of confocal cross sections, NPDA fibroblasts", "format": "cell-based, human", "details": "NPDA fibroblasts, 24 h, 300 nM rHsp70 or W90F, 150 nM rASM or combination", "source_text": "Immunodetection and microscopy. Primary antibodies used included mouse monoclonal antibodies against Hsp70 (2H9; kindly provided by Boris Margulis, Russian Academy of Sciences, St. Petersburg, Russia), glyceraldehyde-3-phosphate dehydrogenase (GAPDH; Biogenesis), BMP (6C4), lysosomal integral membrane protein-1 (H5C6; developed by J. Thomas August and James E. K. Hildreth and obtained from the Developmental Studies Hybridoma Bank developed under the auspices of the NICHD and maintained by The University of Iowa, Department of Biological Sciences, Iowa City, USA). Proteins separated by 10% SDS-PAGE and transferred to a nitrocellulose membrane were detected by using indicated primary antibodies, appropriate peroxidase-conjugated secondary antibodies from Dako, ECL Western blotting reagents (Amersham), and Luminescent Image Reader (LAS-1000Plus, Fujifilm). For immunocytochemistry Alexa […] or Alexa Fluor®-488-conjugated secondary antibodies were used. Lysotracker Red® was used for live visualization of the lysosomal compartment. Fluorescence images were taken using a Zeiss Axiovert 100M laser scanning microscope. Lysotracker quantification and timelapse movies for lysosomal integrity were done on a Zeiss LSM LIVE DUO system."}},
  "data": [
    {"molecule": "CNCCCN1c2ccccc2CCc2ccccc21", "note": "[desipramine]", "values": [
      {"measurement": "desipramine-induced cell death and lysosomal leakage in Hsp70-MEFs as compared to WT-MEFs", "setting": "WT and Hsp70 iMEFs", "value": "significantly reduced"},
      {"measurement": "viability (MTT reduction)", "setting": "WT and Hsp70 iMEFs; MEFs", "value": "reduced the viability of MEFs in a dose-dependent manner"},
      {"measurement": "permeabilization of lysosomes (leakage of lysosomal cathepsins into the cytosol)", "setting": "[1]", "value": "massive permeabilization of lysosomes"},
      {"measurement": "lysosomal stress resistance upon photo-oxidation", "setting": "lysosomes of Hsp70-MEFs", "value": "reverted the lysosomal stress resistance of Hsp70-MEFs to the level of WT-MEFs"}
    ]},
    {"molecule": "B1", "values": [
      {"measurement": "affinity for BMP compared to that of Hsp70", "setting": "BMP", "value": "half"},
      {"measurement": "ASM activity", "setting": "[2]", "value": "increased ASM activity"},
      {"measurement": "lysosomal stability", "setting": "[3]", "value": "ability to stabilize the lysosomes"},
      {"measurement": "lysosomal area / volume of the lysosomal compartment", "setting": "NPDA fibroblasts", "value": "normalize the volume of the dramatically enlarged lysosomal compartment"}
    ]}
  ]
}
